The values that follow come from ChEMBL document CHEMBL1139820, “Synthesis of new 7-chloroquinolinyl thioureas and their biological investigation as potential antimalarial and anticancer agents” (Bioorg Med Chem Lett, 2007).

The structures appear in SMILES notation. pIC50: −log10 of the molar value. Some results are limits rather than exact numbers.

In assay [1] the test system is HeLa. Put plainly: Cytotoxicity against human HeLa cells assessed as cell survival after 7 hrs by MTT assay. Type of assay: functional, cell-based. For orientation: Formazan colour is commonly taken as a measure of viable cells.
Assay [2] deals with Plasmodium falciparum. The assay can be described thus: Antiplasmodial activity against chloroquine-sensitive Plasmodium falciparum D10 in LDH reporter assay after 48 hrs. To be noted: D10, 48 h. Type of assay: functional, organism-based.
A short description of assay [3]: Selectivity index, Ratio of IC50 for human HeLa cells to IC50 for Plasmodium falciparum D10. Type of assay: functional.

Take `CCOC(=O)N1CCN(C(=S)Nc2ccnc3cc(Cl)ccc23)CC1`: the pIC50 (usually the IC50 on a negative log10 scale, so that one unit is a factor of ten) in assay [1] is 4.40; in assay [2] it was under 5.59.
Take `OCCNC(=S)Nc1ccnc2cc(Cl)ccc12`: the figures for the pIC50 in assay [1] and in assay [2] were under 4.30 and under 5.46, respectively. For the same compound, the “Ratio IC50” value in assay [3] is listed as over 14.28.
Consider `CCN(CC)CCCNC(=S)Nc1ccnc2cc(Cl)ccc12`, for which the pIC50 was 4.31 in assay [1] and 5.66 in assay [2]. Further, in assay [3], the “Ratio IC50” value amounted to 22.355.
For the compound `S=C(Nc1ccnc2cc(Cl)ccc12)N1CCNCC1`, the pIC50 in assay [2] is under 5.49.
In the case of `CN(C)CCCNC(=S)Nc1ccnc2cc(Cl)ccc12`, the pIC50 was 4.31 in assay [1] and 5.92 in assay [2]. Also, the “Ratio IC50” value in assay [3] is on record as 40.375.
Turning to `CCN(CC)CCCC(C)Nc1ccnc2cc(Cl)ccc12` (configuration not stated) [CHLOROQUINE], in assay [1], the pIC50 was 5.01.
For `CCN1CCN(C(=S)Nc2ccnc3cc(Cl)ccc23)CC1`, the pIC50 in assay [1] is under 4.30; in assay [2], 5.74. In assay [3], the “Ratio IC50” value is given as over 27.77.
As to `CCSc1nnc(NC(=S)Nc2ccnc3cc(Cl)ccc23)s1`, the pIC50 in assay [2] is under 5.58.
In the case of `S=C(Nc1ccnc2cc(Cl)ccc12)N1CCN(Cc2ccccc2)CC1`, the negative-log IC50 (pIC50) in assay [1] is 4.54; in assay [2], under 5.60.
Turning to `S=C(Nc1ccnc2cc(Cl)ccc12)N1CCN(CC2CCCCC2)CC1`, the pIC50 is under 4.30 in assay [1] and under 5.62 in assay [2]. The “Ratio IC50” value in assay [3] is reported as over 20.83.
In the case of `S=C(Nc1ccnc2cc(Cl)ccc12)N1CCN(c2ccccc2)CC1`, the negative logarithm of the IC50 (pIC50) in assay [1] was 4.36; in assay [2] it was under 5.58.
Consider `NCCNC(=S)Nc1ccnc2cc(Cl)ccc12`, for which the pIC50 in assay [1] was 4.74; in assay [2], 5.48. Also, the “Ratio IC50” value in assay [3] came out at 5.4581.
